Results from article PMC7481290, “Halogenation as a tool to tune antimicrobial activity of peptoids” (Scientific Reports, 2020).
In brackets after ≈: the same amount, converted by molar mass. Non-standard residues stand in square brackets, D forms with d. Residues, ends and D or L forms follow the SMILES beside them. Gly(Nα-4-Cl-benzyl) = O=C(O)CNCc1ccc(Cl)cc1; N(4-Br-benzyl)Gly = O=C(O)CNCc1ccc(Br)cc1; Nspe(4-Br) = C[C@H](NCC(=O)O)c1ccc(Br)cc1; N(4-F-Bzl)Gly = O=C(O)CNCc1ccc(F)cc1; NBzl(4-I)Gly = O=C(O)CNCc1ccc(I)cc1; Nspe = C[C@H](NCC(=O)O)c1ccccc1; Nphe = O=C(O)CNCc1ccccc1; Nlys = NCCCCNCC(=O)O

Columns and labels:
E. coli ATCC 25922 = type: cell-based, Escherichia coli; details: ATCC 25922, 18 h
Description: (§1) Bacterial growth inhibition was determined by using broth microdilution according to the Clinical Laboratory Standards Institute[43]. The antibacterial activity of peptoids was tested against S. aureus ATCC 25923, ATCC29213, and methicillin resistant S. aureus USA 300, methicillin resistant S. epidermidis ATCC 51625, a biofilm producing methicillin resistant S. epidermidis ET-024[44], P. aeruginosa Pa01 (H103), and E. coli ATCC 25922. Bacteria, grown on agar plates for 18 h at 37 °C, were diluted to ∼1 × 10^8 CFU/mL in Mueller‐Hinton Broth II (MHB II). Twofold serial dilutions of peptoids in MHB II were inoculated with bacteria to achieve a final concentration of 5 × 10^5 CFU/mL in polypropylene 96 U‐well microtiter plates (Corning 3,897; ThermoFisher Scientific, Roskilde), followed by incubation at 37 °C in ambient air for 18 h. The MIC values were determined as the lowest concentration showing no visible bacterial growth. Experiments were performed twice (in technical triplicates) on 2 different days.

[1] = test system: P. aeruginosa PA01 (H103); type: cell-based, Pseudomonas aeruginosa; details: H103, 18 h
Description: as §1

S. aureus ATCC 25923 = type: cell-based, Staphylococcus aureus; details: ATCC 25923, 18 h
Description: as §1

S. aureus ATCC 29213 = type: cell-based, Staphylococcus aureus; details: ATCC 29213, 18 h
Description: as §1

[2] = test system: Methicillin-resistant S. aureus USA 300; type: cell-based, Staphylococcus aureus; details: USA 300, 18 h
Description: as §1

[3] = test system: Methicillin-resistant S. epidermidis ET-024; type: cell-based, Staphylococcus epidermidis; details: Methicillin-resistant ET-024, 18 h
Description: as §1

[4] = test system: Methicillin-resistant S. epidermidis ATCC 51625; type: cell-based, Staphylococcus epidermidis; details: ATCC 51625, 18 h
Description: as §1

MIC EC^e (E. coli ATCC 25922)	MIC PA^f [1] [µg/mL]	MIC SA^a (S. aureus ATCC 25923) [µg/mL]	MIC MRSA^b [2] [µg/mL]	MIC MRSE^c [3] [µg/mL]	MIC MRSE^d [4] [µg/mL]	Compound	Minimal inhibitory concentration EC^f (E. coli ATCC 25922) [µg/mL]	Minimal inhibitory concentration PA^g [1] [µg/mL]	Minimal inhibitory concentration SA^a (S. aureus ATCC 25923) [µg/mL]	Minimal inhibitory concentration SA^b (S. aureus ATCC 29213) [µg/mL]	Minimal inhibitory concentration MRSA^c [2] [µg/mL]	Minimal inhibitory concentration MRSE^d [3] [µg/mL]	Minimal inhibitory concentration MRSE^e [4] [µg/mL]
–	–	–	–	–	–	NCCCCNCC(=O)N(CC(=O)N(CCCCN)CC(=O)N(CC(=O)N(CCCCN)CC(=O)N(CC(N)=O)Cc1ccc(F)cc1)Cc1ccc(F)cc1)Cc1ccc(F)cc1 [Compound 2] (H-[Nlys][N(4-F-Bzl)Gly][Nlys][N(4-F-Bzl)Gly][Nlys][N(4-F-Bzl)Gly]-NH2)	512 (≈ 571 µM)	> 512	> 512	> 512	512 (≈ 571 µM)	128 (≈ 143 µM)	512 (≈ 571 µM)
–	–	–	–	–	–	NCCCCNCC(=O)N(CC(=O)N(CCCCN)CC(=O)N(CC(=O)N(CCCCN)CC(=O)N(CC(N)=O)Cc1ccc(Cl)cc1)Cc1ccc(Cl)cc1)Cc1ccc(Cl)cc1 [Compound 3] (H-[Nlys][Gly(Nα-4-Cl-benzyl)][Nlys][Gly(Nα-4-Cl-benzyl)][Nlys][Gly(Nα-4-Cl-benzyl)]-NH2)	512 (≈ 541 µM)	512 (≈ 541 µM)	64 (≈ 67.6 µM)	64 (≈ 67.6 µM)	16 (≈ 16.9 µM)	16 (≈ 16.9 µM)	8 (≈ 8.45 µM)
–	–	–	–	–	–	NCCCCNCC(=O)N(CC(=O)N(CCCCN)CC(=O)N(CC(=O)N(CCCCN)CC(=O)N(CC(N)=O)Cc1ccc(Br)cc1)Cc1ccc(Br)cc1)Cc1ccc(Br)cc1 [Compound 4] (H-[Nlys][N(4-Br-benzyl)Gly][Nlys][N(4-Br-benzyl)Gly][Nlys][N(4-Br-benzyl)Gly]-NH2)	64 (≈ 59.3 µM)	> 512	16 (≈ 14.8 µM)	16 (≈ 14.8 µM)	16 (≈ 14.8 µM)	4 (≈ 3.7 µM)	4 (≈ 3.7 µM)
–	–	–	–	–	–	NCCCCNCC(=O)N(CC(=O)N(CCCCN)CC(=O)N(CC(=O)N(CCCCN)CC(=O)N(CC(N)=O)Cc1ccc(F)cc1)Cc1ccccc1)Cc1ccc(F)cc1 [Compound 6] (H-[Nlys][N(4-F-Bzl)Gly][Nlys][Nphe][Nlys][N(4-F-Bzl)Gly]-NH2)	> 512	> 512	> 512	> 512	> 512	256 (≈ 291 µM)	512 (≈ 582 µM)
–	–	–	–	–	–	NCCCCNCC(=O)N(CC(=O)N(CCCCN)CC(=O)N(CC(=O)N(CCCCN)CC(=O)N(CC(N)=O)Cc1ccc(Cl)cc1)Cc1ccccc1)Cc1ccc(Cl)cc1 [Compound 7] (H-[Nlys][Gly(Nα-4-Cl-benzyl)][Nlys][Nphe][Nlys][Gly(Nα-4-Cl-benzyl)]-NH2)	256 (≈ 281 µM)	512 (≈ 561 µM)	256 (≈ 281 µM)	256 (≈ 281 µM)	128 (≈ 140 µM)	64 (≈ 70.2 µM)	32 (≈ 35.1 µM)
–	–	–	–	–	–	NCCCCNCC(=O)N(CC(=O)N(CCCCN)CC(=O)N(CC(=O)N(CCCCN)CC(=O)N(CC(N)=O)Cc1ccc(Br)cc1)Cc1ccccc1)Cc1ccc(Br)cc1 [Compound 8] (H-[Nlys][N(4-Br-benzyl)Gly][Nlys][Nphe][Nlys][N(4-Br-benzyl)Gly]-NH2)	256 (≈ 256 µM)	256 (≈ 256 µM)	128 (≈ 128 µM)	64 (≈ 63.9 µM)	64 (≈ 63.9 µM)	32 (≈ 32 µM)	16 (≈ 16 µM)
–	–	–	–	–	–	NCCCCNCC(=O)N(CC(=O)N(CCCCN)CC(=O)N(CC(=O)N(CCCCN)CC(=O)N(CC(N)=O)Cc1ccc(I)cc1)Cc1ccccc1)Cc1ccc(I)cc1 [Compound 9] (H-[Nlys][NBzl(4-I)Gly][Nlys][Nphe][Nlys][NBzl(4-I)Gly]-NH2)	256 (≈ 234 µM)	256 (≈ 234 µM)	64 (≈ 58.5 µM)	16 (≈ 14.6 µM)	16 (≈ 14.6 µM)	16 (≈ 14.6 µM)	4 (≈ 3.65 µM)
–	–	–	–	–	–	NCCCCNCC(=O)N(CC(=O)N(CCCCN)CC(=O)N(CC(=O)N(CCCCN)CC(=O)N(CC(=O)N(CCCCN)CC(=O)N(CC(N)=O)Cc1ccc(F)cc1)Cc1ccc(F)cc1)Cc1ccc(F)cc1)Cc1ccc(F)cc1 [Compound 11] (H-[Nlys][N(4-F-Bzl)Gly][Nlys][N(4-F-Bzl)Gly][Nlys][N(4-F-Bzl)Gly][Nlys][N(4-F-Bzl)Gly]-NH2)	128 (≈ 108 µM)	> 512	256 (≈ 215 µM)	256 (≈ 215 µM)	256 (≈ 215 µM)	64 (≈ 53.8 µM)	32 (≈ 26.9 µM)
–	–	–	–	–	–	NCCCCNCC(=O)N(CC(=O)N(CCCCN)CC(=O)N(CC(=O)N(CCCCN)CC(=O)N(CC(=O)N(CCCCN)CC(=O)N(CC(N)=O)Cc1ccc(Cl)cc1)Cc1ccc(Cl)cc1)Cc1ccc(Cl)cc1)Cc1ccc(Cl)cc1 [Compound 12] (H-[Nlys][Gly(Nα-4-Cl-benzyl)][Nlys][Gly(Nα-4-Cl-benzyl)][Nlys][Gly(Nα-4-Cl-benzyl)][Nlys][Gly(Nα-4-Cl-benzyl)]-NH2)	64 (≈ 50.9 µM)	> 512	4 (≈ 3.18 µM)	4 to 8	2 (≈ 1.59 µM)	2 (≈ 1.59 µM)	1 (≈ 0.796 µM)
–	–	–	–	–	–	NCCCCNCC(=O)N(CC(=O)N(CCCCN)CC(=O)N(CC(=O)N(CCCCN)CC(=O)N(CC(=O)N(CCCCN)CC(=O)N(CC(N)=O)Cc1ccc(Br)cc1)Cc1ccc(Br)cc1)Cc1ccc(Br)cc1)Cc1ccc(Br)cc1 [Compound 13] (H-[Nlys][N(4-Br-benzyl)Gly][Nlys][N(4-Br-benzyl)Gly][Nlys][N(4-Br-benzyl)Gly][Nlys][N(4-Br-benzyl)Gly]-NH2)	64 (≈ 44.6 µM)	> 512	4 (≈ 2.79 µM)	8 (≈ 5.58 µM)	2 (≈ 1.39 µM)	2 (≈ 1.39 µM)	4 (≈ 2.79 µM)
> 64 µg/mL	64 (≈ 64.2 µM)	64 (≈ 64.2 µM)	32 (≈ 32.1 µM)	16 (≈ 16 µM)	8 (≈ 8.02 µM)	C[C@@H](c1ccc(Br)cc1)N(CC(N)=O)C(=O)CN(C(=O)CN(CCCCN)C(=O)CN(C(=O)CN(C(=O)CNCCCCN)[C@@H](C)c1ccccc1)[C@@H](C)c1ccccc1)[C@@H](C)c1ccccc1 [Compound 49] (H-[Nlys][Nspe][Nspe][Nlys][Nspe][Nspe(4-Br)]-NH2)	–	–	–	–	–	–	–
1,024 μg/mL	256 (≈ 279 µM)	256 (≈ 279 µM)	256 (≈ 279 µM)	64 (≈ 69.7 µM)	64 (≈ 69.7 µM)	C[C@@H](c1ccccc1)N(CC(N)=O)C(=O)CN(C(=O)CN(CCCCN)C(=O)CN(C(=O)CN(C(=O)CNCCCCN)[C@@H](C)c1ccccc1)[C@@H](C)c1ccccc1)[C@@H](C)c1ccccc1 [Pep1-6mer] (H-[Nlys][Nspe][Nspe][Nlys][Nspe][Nspe]-NH2)	–	–	–	–	–	–	–
